Columns and labels:
[1] = Binding of peptides to synthetic melanin (Tricine-SDS-PAGE analysis); conditions: for Percentage of peptide binding to melanin, Mel + peptide: L-Dopa polymerized 2 h at pH 8.5 and 60° C. before the peptide was added; for binding of the peptides to melanin (in words), SDS-page analysis: antigen added just after L-Dopa is polymerized in melanin; for Percentage of peptide binding to melanin, Peptide-Mel: peptide mixed with L-Dopa (1/4 gp100, 1/6 EphA2), then 2 hours at pH 8.5 and 60° C.
Excerpt: The binding of the peptide to the melanin can be verified by Tricine-SDS-PAGE analysis as described in Carpentier; 2017 (op. cit.). Briefly, samples (peptide-Mel or peptide alone) are loaded on acrylamide gels. Following electrophoresis, the gels are stained with Coomassie Brilliant Blue R-250, allowing the quantification of the free peptide in the gel. The binding of peptides to melanin can be expressed as the ratio: [amount of unbound peptide in samples Peptide-Mel/amount of peptides in control samples containing peptides alone.
Peptides were mixed with L-Dopa (weight ratio peptide/L-Dopa=1/4 and 1/6 for gp100 and EphA2, respectively) then incubated for 2 hours at pH 8.5 and 60° C. under agitation to ensure oxygenation of the solution to generate nanoparticles of melanin-bound peptides (Peptide-Mel). Alternatively, L-Dopa alone (0.8 mg/ml) was polymerized into melanin for 2 h at pH 8.5 and 60° C. under agitation, before the peptides (weight ratio peptide/L-Dopa=1/4 and 1/6 for gp100 and EphA2, respectively) were added to the solution (Mel+peptide). Tricine-SDS-PAGE analysis was performed as described in Carpentier; 2017 (op. cit.). Briefly, samples (peptide-Mel or peptide alone) were loaded on acrylamide gels. Following electrophoresis, the gels were stained with Coomassie Brilliant Blue R-250 and imaged with the ChemiDoc XRS+ system (Bio-Rad Laboratory), allowing the quantification of the free peptide in the gel. The binding of peptides to melanin was expressed as the ratio: [amount of unbound peptide in samples Peptide-Mel/amount of peptides in control samples containing peptides alone]
First column (Peptide-Mel): L-Dopa (0.8 mg/ml) was mixed with peptides (weight ratio peptide/L-Dopa=1/4) then incubated for 2 hours at pH 8.5 and 60° C. to generate nanoparticles of melanin-bound peptides. Alternatively (second column; Mel+peptide), L-Dopa alone (0.8 mg/ml) was first polymerized into melanin for 2 h at pH 8.5 and 60° C. under vigorous agitation, before the peptides (weight ratio peptide/L-Dopa=1/4) were added to the solution and incubated for 2 hours at room temperature. In both cases, the percentage of peptides that bound to melanin was then quantified with SPS-page analysis, as described in table 1. (ND=not done)
(§1) L-Dopa (0.8 mg/ml) underwent an oxidative polymerization at pH 8.5 in aerobic conditions for 2 hours at 60° C. The reaction mixture was then filtered on a 10 kDa filter, and the retentate containing the synthetic melanin was resuspended at pH 7.5 in phosphate buffer. Peptides were then added (at the weight ratio peptide/L-Dopa=1/4) and the mixture was incubated for various periods of time and or pH. The percentage of peptides that bound to melanin was then quantified with SPS-page analysis, as described in table 1. (ND=not done).
as §1, with “8.5 and 60° C.” for “8.5 in aerobic conditions”, “2 hours.” for “2 hours at 60° C.”, “of time. Binding” for “of time and or pH. The percentage”, “of the” for “of”, “peptides” for “peptides that bound to melanin”, “(ND=not done)” for “(ND=not done).”

C57BL/6 mice = assay: CTL response (IFNg-SFCs of re-stimulated splenocytes) after subcutaneous immunization; assay type: in vivo; conditions: antigen added just after polymerization (Mel+peptide) + CpG-28, subcutaneous, 10 μg/mouse, day 8
Description: FIG. 1: CTL response after subcutaneous immunizations in 5-weeks old, C57BL/6, mice. Peptides (10 μg/mouse) were mixed with L-Dopa (weight ratio peptide/L-Dopa=1/4 and 1/6 for gp100 and EphA2 respectively) and incubated under the above described conditions (see table 1). Phosphorothioate oligonucleotide CpG-28 (5′-[…], SEQ ID NO: 21), were added to vaccine formulations (10 μg/mouse) just before the immunizations. Mice were then immunized sub-cutaneously with gp100-Mel+CpG (“gp100-Mel”), or with previously synthesized melanin mixed with gp100 and CpG (“Mel+gp100”); EphA2-Mel+CpG (“EphA2-Mel”), melanin+EphA2+CpG (“Mel+EphA2”). Mice were sacrificed on day 8 and the CTL response was performed as described in Carpentier; 2017. Briefly, splenocytes were re-stimulated in vitro with the corresponding MHC class 1-epitope (non-conjugated to melanin) and the numbers of IFNg-SFCs (Spot forming cells) were measured and expressed as Mean+/−S.E.M. (n=8 mice/group with pooled data from 2 different experiments of 4 mice each. Student-T test: gp100-Mel vs Mel+gp100: p<0.001; EphA2-Mel vs Mel+EphA2: p<0.001)
FIG. 2: CTL response after subcutaneous immunizations in C57BL/6 mice. […]

Sequence | Percentage of peptide binding to melanin, Mel + peptide [1] | binding of the peptides to melanin (in words), SDS-page analysis [1] | Percentage of peptide binding to melanin, Peptide-Mel [1] | ability of the vaccine formulation to trigger a CTL (CD8) response (C57BL/6 mice) | Binding of peptides on synthetic melanin, Mel + peptide 10 minutes ([1]; filtered preformed melanin at pH 7.5, peptide/L-Dopa 1/4, 10 minutes) [%] | Binding of peptides on synthetic melanin, Mel + peptide 2 hours ([1]; filtered preformed melanin at pH 7.5, peptide/L-Dopa 1/4, 2 hours) [%] | Binding of peptides on synthetic melanin, Mel + peptide 18 hours ([1]; filtered preformed melanin at pH 7.5, peptide/L-Dopa 1/4, 18 hours) [%]
FSHHNIIRL (EphA2 peptide) [SEQ ID NO: 2, reference compound] | 9 +/− 6% | minimal binding | 93 +/− 12% | lost | – | – | –
KVPRNQDWL (gp100 peptide) [SEQ ID NO: 1, reference compound] | 23 +/− 8% | minimal binding | 100 +/− 0% | lost | 6 | 22 | 89

Source: US20230084978A1, “OPTIMIZATION OF PEPTIDE-MELANIN BINDING” (ASSITANCE PUBLIQUE - HÔPITAUX DE PARIS, priority 2020, published 2023)
